Measurements from patent US4021566A, “2,5-Dimethyl-1-pyrrole-lower-alkanecarboxamides” (Sterling Drug Inc., priority 1975, dated 1977).
Several values for one entry are separate records, joined by “and”; a condition that tells them apart may be missing. Equal values may be shown once.

Columns and labels:
[1] = system: gastric secretion; test: Anti-secretory activity, pylorus ligation method of Shay et al.; format: in vivo, male albino Wistar rats; conditions: rat; for Anti-Secretory % Inhibition of Free Acid / Anti-Secretory pH: oral; for Anti-Secretory % Inhibition of Free Acid: vs control; for Anti-Secretory pH: pH of gastric fluid
Description: In standard biological test procedures, described generally by Shay et al., Gastroenterology 5, 43 (1945) and 26, 906 (1954) and by Selmici et al., Acta Physiol. Acad. Sci. Hung. […] Anti-secretory activity was determined in male albino Wistar rats weighing approximately 180 g. using the method described by Shay et al. which is described as follows: the rats were divided into medicated groups of at least five rats each and control groups of ten rats. The rats were medicated orally once daily for two days prior to stomach ligation and once again immediately following ligation. All drugs were administered as the free base, and control rats received only the vehicle of medication. The rats were housed individually in wire cages, food was withdrawn forty-eight hours prior to surgery, and water was withdrawn at the time of surgery. Laparotomy was performed under light ether anesthesia, the pyloric-duodenal junction was ligated, and the wound was closed with metal clips and sprayed with a protective surgical dressing. Five hours following surgery, the rats were sacrificed, the stomach was removed, and the gastric juice collected. The gastric fluid was centrifuged, and total volume, color, and volume of solids were recorded. The pH of the gastric fluid was then determined on a Beckamn pH meter, and the "free" and "total" hydrochloric acid content of each gastric sample was determined by titrating an aliquot of the gastric fluid (diluted to approximately 10 ml. with distilled water) by titrating with 0.1N sodium hydroxide against Toepfers reagent and phenolphthalein, respectively. By determining the milliequivalents of hydrochloric acid per milliliter of gastric juice and knowing the total volume of gastric juice secreted by each rat, the total acid output can be calculated. Since pH is a function of "free" acid, the activity of the test compounds can be evaluated by comparison of the mean "free" acid of medicated rats with the mean "free" acid of the controls, and the activity can thus be expressed in terms of percent inhibition of free acid.

[2] = system: reserpine-induced stomach ulceration; test: Anti-ulcer activity, reserpine-induced anti-ulcer test method of Selmici et al.; format: in vivo, male, albino, Sprague-Dawley rats; conditions: rat, oral, reserpine 5.0 mg/kg i.m., vs control
Description: The anti-ulcer activity of the compounds was determined using the reserpine-induced anti-ulcer test method, described by Selmici et al., which is described briefly as follows: male, albino, Sprague-Dawley rats, weighing approximately 300 g., were divided into medicated and control groups of at least five rats each, and one positive control group of five rats medicated with a known drug at the active dose was run with each experiment. The rats were medicated forty-eight, twenty-four, and one hour before receiving an injection of reserpine. All test drugs were administered orally in terms of base, and the control rats received only the vehicle of medication. The rats were housed individually in wire cages, and food was withdrawn twenty-four hours prior to injection of reserpine, while water was allowed ad libitum. One hour following the third medication, 5.0 mg. of reserpine per kilogram of body weight in a concentration of 5 mg./ml. was injected intramuscularly in each rat. Eighteen hours after injection the rats were sacrificed, their stomachs removed, opened along the greater curvature, rinsed in warm saline, and pinned to a cork board for gross observation. The stomachs were examined for the number and size of ulcerations located in the glandular portion of the stomach with the aid of a one millimeter grid ocular with a 10x dissecting microscope. The degree of ulceration was arbitrarily graded according to the number and size of the ulcers as follows:
The points were added together and divided by the number of rats in each group to give an ulcer score, and the difference in the mean scores of the medicated and control group was expressed as percent inhibition of ulceration. Alternatively, the results can be expressed as a ratio of the total number of rats with any degree of ulceration (as the numerator) to the total number of rats in the test group (as the denominator).

## Cc1c(C)c(C)n(CC(N)=O)c1C [Example 1, 2,3,4,5-tetramethyl-1-pyrroleacetamide]
[1]; dose 12.5 (mg/kg)
  Anti-Secretory % Inhibition of Free Acid: 44%
[1]; dose 12.5 (unit not in table; mg/kg)
  Anti-Secretory pH: 1.3
[1]; dose 25 (mg/kg)
  Anti-Secretory pH: 1.5
  Anti-Secretory % Inhibition of Free Acid: 49%
[1]; dose 50 (mg/kg)
  Anti-Secretory pH: 2.9
  Anti-Secretory % Inhibition of Free Acid: 83%
[1]; dose 100 (mg/kg)
  Anti-Secretory pH: 3.6
  Anti-Secretory % Inhibition of Free Acid: 91%
[2]; dose 25 (mg/kg)
  Anti-Ulcer % Inhibition: 61%
[2]; dose 50 (mg/kg)
  Anti-Ulcer % Inhibition: 87%
[2]; dose 100 (mg/kg)
  Anti-Ulcer % Inhibition: 94%

## Cc1ccc(C)n1CC(N)=O [Example 2, 2,5-dimethyl-1-pyrroleacetamide]
[1]; dose 50 (mg/kg)
  Anti-Secretory pH: 1.7
  Anti-Secretory % Inhibition of Free Acid: 21%
[1]; dose 100 (mg/kg)
  Anti-Secretory pH: 2.7 and 2.6
  Anti-Secretory % Inhibition of Free Acid: 78% and 63%
[1]; dose 200 (mg/kg)
  Anti-Secretory pH: 4.6
  Anti-Secretory % Inhibition of Free Acid: 100%
[2]; dose 50 (mg/kg)
  Anti-Ulcer % Inhibition: 40%

## Cc1c(C)c(C)n(CCC(N)=O)c1C [Example 3, β-(2,3,4,5-tetramethyl-1-pyrrole)propionamide]
[1]; dose 100 (mg/kg)
  Anti-Secretory pH: 2.4
  Anti-Secretory % Inhibition of Free Acid: 60%
[2]; dose 25 (mg/kg)
  Anti-Ulcer % Inhibition: 36%
[2]; dose 50 (mg/kg)
  Anti-Ulcer % Inhibition: 66%

## NC(=O)Cn1cccc1 [Reference, pyrrole-1-acetamide, reference compound]
[1]; in vivo
  anti-secretory activity (in words): has anti-secretory activity
[1]; dose 100 (mg/kg)
  Anti-Secretory pH: 1.7
  Anti-Secretory % Inhibition of Free Acid: 46%
